Laboratory results: PubChem BioAssay (NCI)
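Following 48 hours of exposure in 96-well plates, responses at five concentrations were used to interpolate endpoints linearly. Here, GI50 denotes the concentration required for 50% inhibition of growth. The concentration for full growth arrest is given as TGI.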

Key:
Assay in all cases: inhibition of tumour cell growth, NCI panel, 48 h
A549 NSCLC = tested on: A549 NSCLC
OVCAR-5 ovarian = tested on: OVCAR-5 ovarian
SK-MEL-5 melanoma = tested on: SK-MEL-5 melanoma
RXF 393 renal = tested on: RXF 393 renal
ACHN renal = tested on: ACHN renal
SK-MEL-28 melanoma = tested on: SK-MEL-28 melanoma
NCI-H522 lung = tested on: NCI-H522 lung
NCI-H23 lung = tested on: NCI-H23 lung
UACC-62 melanoma = tested on: UACC-62 melanoma
M14 melanoma = tested on: M14 melanoma

Structure (SMILES)	GI50 (A549 NSCLC)	TGI (A549 NSCLC)	GI50 (OVCAR-5 ovarian)	TGI (OVCAR-5 ovarian)	GI50 (SK-MEL-5 melanoma)	TGI (SK-MEL-5 melanoma)	GI50 (RXF 393 renal)	TGI (RXF 393 renal)	GI50 (ACHN renal)	TGI (ACHN renal)	GI50 (SK-MEL-28 melanoma)	TGI (SK-MEL-28 melanoma)	GI50 (NCI-H522 lung)	TGI (NCI-H522 lung)	GI50 (NCI-H23 lung)	TGI (NCI-H23 lung)	TGI (UACC-62 melanoma)	TGI (M14 melanoma)
C[C@@H]1CCN(C(=O)CC#N)C[C@@H]1N(C)c1ncnc2[nH]ccc12	> 100 µM	> 100 µM	27.4 µM	> 100 µM	> 100 µM	> 100 µM	16.3 µM	85.3 µM	57.2 µM	> 100 µM	62.6 µM	> 100 µM	> 100 µM	> 100 µM	> 100 µM	> 100 µM		
CC1CSc2nc3[nH]c(=S)[nH]c3c(=O)n2C1 (stereo unspecified)		> 100 µM		> 100 µM		> 100 µM		> 100 µM		> 100 µM		> 100 µM				> 100 µM	> 100 µM	
N#Cc1nc(Cc2ccccc2)oc1N		> 100 µM		> 100 µM		> 100 µM		> 100 µM		> 100 µM		> 100 µM				> 100 µM		> 100 µM
CCOC(=O)c1c(NC(=O)c2ccccc2)sc2c1CCC2		> 100 µM		> 100 µM		> 100 µM		> 100 µM		> 100 µM						> 100 µM	> 100 µM	> 100 µM
C/C(=C1/N=C(c2cc([N+](=O)[O-])ccc2Cl)N(C2=CC=C(Cl)CC2)C1=O)c1cc2ccccc2oc1=O		> 100 µM		> 100 µM		> 100 µM				> 100 µM		> 100 µM		> 100 µM		58.8 µM	> 100 µM	> 100 µM
COc1ccc(/C=N/n2c(C)n[nH]c2=O)cc1		> 100 µM		> 100 µM						> 100 µM		> 100 µM				> 100 µM	> 100 µM	> 100 µM
O=S(=O)(NC(c1ccccc1)(c1cc2ccccc2[nH]1)c1cc2ccccc2n1S(=O)(=O)c1ccccc1)c1ccccc1 (stereo unspecified)		> 100 µM		> 100 µM		> 100 µM						> 100 µM				> 100 µM	> 100 µM	> 100 µM
CN(C)CCCNC(=O)CNC(=O)c1cc(NC(=O)c2cc(NC(=O)c3cc(NC(=O)CCNC(=O)c4cc(NC(=O)c5cc(NC(=O)c6nccn6C)cn5C)cn4C)cn3C)cn2C)cn1C		> 100 µM		> 100 µM		> 100 µM				> 100 µM		> 100 µM		> 100 µM		> 100 µM		> 100 µM
O=C(/C=C/c1ccc(Cl)c(Cl)c1)CCN1CCN(CCC(=O)/C=C/c2ccc(Cl)c(Cl)c2)CC1		> 100 µM		39.9 µM		38.2 µM		38.9 µM		34.5 µM		46.3 µM		31.6 µM			45.3 µM	35.6 µM
Nc1ccccc1Sc1ccc(Cl)cc1		> 100 µM		> 100 µM		32 µM		32.1 µM		99.2 µM		64 µM				64.4 µM	> 100 µM	> 100 µM
Cc1ccc(S(=O)(=O)OCC23CCC(C4CC42)C2CC23)cc1 (stereo unspecified)		> 100 µM		> 100 µM		> 100 µM				> 100 µM		> 100 µM				> 100 µM	> 100 µM	> 100 µM
COc1cc(/C=C/C(=O)O)ccc1O		> 100 µM		> 100 µM		> 100 µM				> 100 µM		> 100 µM		> 100 µM		> 100 µM		> 100 µM
C=CCOc1ccc(C2c3c([nH][nH]c3=O)CC(C)(O)C2C(=O)OC)cc1OC (stereo unspecified)		> 100 µM		> 100 µM		> 100 µM				> 100 µM		> 100 µM		> 100 µM		> 100 µM	> 100 µM	> 100 µM
CCOP(=O)(OCC)C(Cc1ccccc1)N=C(c1ccccc1)c1ccccc1 (stereo unspecified)		24.2 µM		28.1 µM		25.5 µM				28.6 µM		31.3 µM		29.6 µM		28.6 µM	26.1 µM	30.4 µM
CC1OC(OC2C(Oc3cc(O)c4c(=O)cc(-c5ccc(O)cc5)oc4c3)OC(CO)C(O)C2O)C(O)C(O)C1O (stereo unspecified)		> 100 µM		> 100 µM		> 100 µM				> 100 µM		> 100 µM		> 100 µM		> 100 µM	> 100 µM	> 100 µM
COc1ccc(/C=N/n2c(Cc3ccc(Cl)cc3)n[nH]c2=O)cc1		> 100 µM		> 100 µM				35.1 µM		> 100 µM		> 100 µM				> 100 µM	> 100 µM	> 100 µM
CC(=O)/C=C/c1c[nH]c(=O)[nH]c1=O		1090 µM		618 µM		574 µM		416 µM				504 µM		295 µM		745 µM	574 µM	
NNC(=O)CCCCCCCC(=O)O		> 100 µM		> 100 µM		> 100 µM				> 100 µM		> 100 µM		> 100 µM		> 100 µM	> 100 µM	> 100 µM
Cn1c2c(c3ccccc31)CC(=O)N1CCCCC1C21OCCO1 (stereo unspecified)		> 100 µM		> 100 µM		> 100 µM		> 100 µM		> 100 µM		> 100 µM				> 100 µM	> 100 µM	> 100 µM
